Assay results taken from PubChem BioAssay (NCI).
“And” between values parts separate entries of the source, which are not always exact repeats. Equal entries are not always repeated.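 Exposure lasted 48 hours, with cells grown in 96-well plates and compounds tested at five concentrations. GI50 is the concentration that inhibits growth by half. TGI marks complete inhibition of growth.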

Assays:
Assay in all cases: NCI anticancer screen, dose series, 48 h
786-0 renal = system: 786-0 renal
ACHN renal = system: ACHN renal
PC-3 prostate = system: PC-3 prostate
IGROV1 ovarian = system: IGROV1 ovarian
CCRF-CEM leukemia = system: CCRF-CEM leukemia
RPMI-8226 leukemia = system: RPMI-8226 leukemia
HCC-2998 colon = system: HCC-2998 colon
T-47D breast = system: T-47D breast
MOLT-4 leukemia = system: MOLT-4 leukemia
DU-145 prostate = system: DU-145 prostate
HOP-62 NSCLC = system: HOP-62 NSCLC
M14 melanoma = system: M14 melanoma
MDA-MB-231 breast = system: MDA-MB-231 breast
NCI-H522 lung = system: NCI-H522 lung

Row | SMILES | TGI (786-0 renal) | TGI (ACHN renal) | TGI (PC-3 prostate) | TGI (IGROV1 ovarian) | TGI (CCRF-CEM leukemia) | TGI (RPMI-8226 leukemia) | TGI (HCC-2998 colon) | TGI (T-47D breast) | TGI (MOLT-4 leukemia) | TGI (DU-145 prostate) | TGI (HOP-62 NSCLC) | TGI (M14 melanoma) | TGI (MDA-MB-231 breast) | TGI (NCI-H522 lung) | GI50 (ACHN renal) | GI50 (HOP-62 NSCLC) | GI50 (MDA-MB-231 breast)
1 | c1csc(-c2cc(-c3cccs3)c(-c3ccsc3)s2)c1 | > 100 µM | > 100 µM | > 100 µM | > 100 µM | > 100 µM | > 100 µM | > 100 µM | > 100 µM | > 100 µM | > 100 µM | > 100 µM | > 100 µM | > 100 µM | – | – | – | –
2 | COc1ccccc1N1CCN(CCCN2/C(=C(\O)c3ccccc3)C(=O)c3c(C)cc(C)nc3S2(=O)=O)CC1 | > 100 µM | > 100 µM | > 100 µM | > 100 µM | > 100 µM | – | – | > 100 µM | > 100 µM | > 100 µM | > 100 µM | > 100 µM | > 100 µM | > 100 µM | – | – | –
3 | CCc1c(C)c(C#N)c(=S)n(C2OC(COC(C)=O)C(OC(C)=O)C(OC(C)=O)C2OC(C)=O)c1C (stereo not given) | > 100 µM and 41.5 µM | > 100 µM | > 100 µM and 27.9 µM | > 100 µM | > 100 µM | – | > 100 µM | > 100 µM | > 100 µM | > 100 µM | > 100 µM and 21.8 µM | > 100 µM | > 100 µM and 73.9 µM | > 100 µM | > 100 µM and 18.9 µM | 45.4 µM and 5.33 µM | > 100 µM and 13 µM
4 | N#Cc1nc(C2=C(Cl)c3ccccc3OC2)[nH]c1C#N | > 100 µM | > 100 µM | 71.7 µM | > 100 µM | > 100 µM | 61 µM | 61.8 µM | – | 40.5 µM | – | – | 34.2 µM | – | – | – | – | –
5 | COc1ccc(N2C(=O)c3cc(C)cnc3S2(=O)=O)cc1 | > 100 µM | > 100 µM | > 100 µM | > 100 µM | > 100 µM | > 100 µM | > 100 µM | – | > 100 µM | > 100 µM | > 100 µM | – | > 100 µM | > 100 µM | – | – | –
6 | CC(=O)OC1(C)C=CC(=O)C=C1 | 47.9 µM | 34.7 µM | > 100 µM | 31.6 µM | > 100 µM | > 100 µM | > 100 µM | – | > 100 µM | > 100 µM | 75.7 µM | > 100 µM | 49.1 µM | 24.2 µM | – | – | –
7 | CN1C2CCC1CC(CCNC(c1ccccc1)c1ccccc1)C2 (stereo not given) | 41.4 µM | > 100 µM | > 100 µM | > 100 µM | > 100 µM | 56.1 µM | – | 72.2 µM | > 100 µM | > 100 µM | 50.9 µM | 24.9 µM | 72.4 µM | 85.7 µM | – | – | –
8 | COc1ccc(N2C(=O)C3ON(C(C(N)=O)c4ccccc4)C(c4cc5ccccc5c5ccccc45)C3C2=O)cc1 (stereo not given) | > 50 µM | > 50 µM | > 50 µM | > 50 µM | > 50 µM | – | – | > 50 µM | 46.9 µM | > 50 µM | > 50 µM | > 50 µM | > 50 µM | > 50 µM | – | – | –
9 | NNc1nncc2n[nH]nc12 | > 100 µM | > 100 µM | > 100 µM | > 100 µM | > 100 µM | > 100 µM | – | > 100 µM | > 100 µM | > 100 µM | > 100 µM | > 100 µM | > 100 µM | – | – | – | –
10 | O=C(O)Cc1cc(O)c(CC(=O)O)cc1O | > 100 µM | > 100 µM | > 100 µM | > 100 µM | – | – | > 100 µM | > 100 µM | > 100 µM | > 100 µM | > 100 µM | > 100 µM | > 100 µM | > 100 µM | – | – | –
11 | CC1ON2CCCC2[C@H]1C(=O)N1C2CC3CCC2(CS1(=O)=O)C3(C)C (stereo not given in full) | > 100 µM | > 100 µM | > 100 µM | > 100 µM | > 100 µM | > 100 µM | – | > 100 µM | > 100 µM | > 100 µM | > 100 µM | > 100 µM | > 100 µM | > 100 µM | – | – | –
12 | CC(C)=CC(=O)C[C@H]1C(=O)O[C@@H]2C[C@H]3C(C)=CC(=O)[C@@H](O)[C@]3(C)[C@H]3[C@@]4(O)OC[C@]32[C@@H]1[C@@H](C)[C@H]4O | 0.838 µM | 0.834 µM | 0.241 µM | 0.941 µM | 0.0918 µM | 0.0447 µM | 0.368 µM | 0.144 µM | > 100 µM | 0.12 µM | 1.8 µM | 0.115 µM | 0.381 µM | – | – | – | –
13 | O=C1NCCCNCCCNCCCNC(=O)c2cccc1n2 | > 100 µM | > 100 µM | > 100 µM | > 100 µM | > 100 µM | > 100 µM | > 100 µM | – | > 100 µM | – | > 100 µM | > 100 µM | > 100 µM | > 100 µM | – | – | –
14 | CC(=O)N[C@@H](Cc1ccc(O)cn1)C(=O)NCc1cccc(Cl)c1 | > 100 µM | > 100 µM | > 100 µM | > 100 µM | > 100 µM | > 100 µM | > 100 µM | > 100 µM | > 100 µM | > 100 µM | > 100 µM | > 100 µM | – | > 100 µM | – | – | –
15 | Cc1ccc(-c2c3nc(c(-c4ccc(C)cc4)c4ccc([nH]4)c(-c4ccc(OCC5COC(C)(C)O5)cc4)c4nc(c(-c5ccc(C)cc5)c5ccc2[nH]5)C=C4)C=C3)cc1 (stereo not given) | > 31.6 µM | > 31.6 µM | – | > 31.6 µM | – | > 100 µM | > 31.6 µM | > 31.6 µM | > 31.6 µM | > 31.6 µM | > 31.6 µM | > 31.6 µM | > 31.6 µM | > 31.6 µM | – | – | –
16 | O=C1O/C(=C(/Cl)c2cccc3ccccc23)c2ccccc21 | > 100 µM | – | > 100 µM | > 100 µM | – | > 100 µM | > 100 µM | – | > 100 µM | > 100 µM | > 100 µM | > 100 µM | – | > 100 µM | – | – | –
17 | N#C/C(N)=C(\C#N)N=CN | > 100 µM | > 100 µM | > 100 µM | > 100 µM | > 100 µM | > 100 µM | > 100 µM | > 100 µM | > 100 µM | > 100 µM | > 100 µM | > 100 µM | > 100 µM | – | – | – | –
